According to patent US20100028849A1, “NOVEL PROCESS FOR DEVITALIZED/ACELLULAR TISSUE FOR TRANSPLANTATION” (priority 2006, published 2010):

Columns and labels:
[1] = system: human skin (epidermis and dermis intact) tissue cells; test: alamarBlue viability assay of human skin exposed to ozone; assay type: cell-based; settings: 60 minutes of ozone exposure in sterile normal saline with agitation; 5-20 ppm, 4 C to 25 C
Description: This example measured the effect of ozone on human skin. Human skin (epidermis and dermis intact) was exposed to ozone for various lengths of time. Ozone was pumped through an aqueous solution (sterile normal saline) obtaining levels between 5 and 20 ppm at temperatures between 4 C and 25 C. An alamarBlue™ viability assay, which is supplied by Invitrogen Corporation of Carlsbad, Calif., was used to quantify viability of the tissue cells. The alamarBlue™ dye is reduced by metabolic intermediates within a cell; reduction of the dye is then measured spectrophotometrically.
To perform the alamarBlue™ assay, human skin was sectioned into 6 mm diameter discs and placed individually into wells of a 24-well tissue culture plate. To each sample, 10% alamarBlue™ reagent in RPMI-1640 was added. The plate was incubated at 37° C. on an orbital shaker for 4 hours. Each well was then sampled in triplicate to a 96-well assay plate. The absorbance of the plate was measured at 600 nm and 570 nm, where the […]. The absorbencies were then used to calculate the percent reduction of alamarBlue™ dye, as follows: […]

S. epidermidis = test: antimicrobial ability of ozone in aqueous solution, plating on agar (CFU); assay type: cell-based; settings: 5-10 ppm ozone in sterile water; for Final (CFU/mL): initial inoculum 2.1 × 10^8 CFU/mL
Experimental: S. epidermidis was subjected to 5-10 ppm ozone in sterile water, followed by plating the organisms onto agar plates and placing the plates in a 37° C. incubator.

O=[O+][O-] [Ozone, ozone]
viability of the tissue cells (percent reduction of alamarBlue dye) [1]: death of the cells within the skin
Log Reduction (S. epidermidis; 2.5 min exposed to ozone): 8 log
Final (CFU/mL) (S. epidermidis; 2.5 min exposed to ozone): 0 CFU/mL
Log Reduction (S. epidermidis; 5 min exposed to ozone): 8 log
Final (CFU/mL) (S. epidermidis; 5 min exposed to ozone): 0 CFU/mL
Log Reduction (S. epidermidis; 7.5 min exposed to ozone): 8 log
Final (CFU/mL) (S. epidermidis; 7.5 min exposed to ozone): 0 CFU/mL
Log Reduction (S. epidermidis; 10 min exposed to ozone): 8 log
Final (CFU/mL) (S. epidermidis; 10 min exposed to ozone): 0 CFU/mL
Log Reduction (S. epidermidis; 20 min exposed to ozone): 8 log
Final (CFU/mL) (S. epidermidis; 20 min exposed to ozone): 0 CFU/mL
log reduction in colony forming units (CFU) (S. epidermidis; at 2.5 minutes or longer, total kill of microbes): 8 log
